In article PMC7613998, “Development of selective inhibitors of phosphatidylinositol 3-kinase C2α” (Nature Chemical Biology, 2022) one finds inhibition and IC50 data, which are given here for three molecules.

Structures are written as SMILES. Read-outs that look alike come from different tables or passages of the source.

For orientation: inhibition means the change of the read-out against control, counted positive when it falls. For orientation: IC50 means the midpoint of a concentration-inhibition curve.

Common to all, as to test: biochemical
Assay [1] has as its target PIP5K1B (Homo sapiens, UniProt O14986). Also noted: SelectScreen Adapta purified lipid kinase panel, 1 uM compound, 10 uM ATP, per cent inhibition. To be noted: ATP=10; Technology=Adapta; 10 uM ATP. The method in brief:
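Purified lipid kinases screened with inhibitors at 1 µM in the presence of 10 µM ATP; data are mean ± SD of two independent experiments.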

The target of assay [2] is INSR (Homo sapiens, UniProt P06213). Further details: SelectScreen Z'-LYTE purified kinase panel, per cent inhibition, mean of two points. To be noted: (μM)=Km app.
Sequence of INSR (P06213 whole entry): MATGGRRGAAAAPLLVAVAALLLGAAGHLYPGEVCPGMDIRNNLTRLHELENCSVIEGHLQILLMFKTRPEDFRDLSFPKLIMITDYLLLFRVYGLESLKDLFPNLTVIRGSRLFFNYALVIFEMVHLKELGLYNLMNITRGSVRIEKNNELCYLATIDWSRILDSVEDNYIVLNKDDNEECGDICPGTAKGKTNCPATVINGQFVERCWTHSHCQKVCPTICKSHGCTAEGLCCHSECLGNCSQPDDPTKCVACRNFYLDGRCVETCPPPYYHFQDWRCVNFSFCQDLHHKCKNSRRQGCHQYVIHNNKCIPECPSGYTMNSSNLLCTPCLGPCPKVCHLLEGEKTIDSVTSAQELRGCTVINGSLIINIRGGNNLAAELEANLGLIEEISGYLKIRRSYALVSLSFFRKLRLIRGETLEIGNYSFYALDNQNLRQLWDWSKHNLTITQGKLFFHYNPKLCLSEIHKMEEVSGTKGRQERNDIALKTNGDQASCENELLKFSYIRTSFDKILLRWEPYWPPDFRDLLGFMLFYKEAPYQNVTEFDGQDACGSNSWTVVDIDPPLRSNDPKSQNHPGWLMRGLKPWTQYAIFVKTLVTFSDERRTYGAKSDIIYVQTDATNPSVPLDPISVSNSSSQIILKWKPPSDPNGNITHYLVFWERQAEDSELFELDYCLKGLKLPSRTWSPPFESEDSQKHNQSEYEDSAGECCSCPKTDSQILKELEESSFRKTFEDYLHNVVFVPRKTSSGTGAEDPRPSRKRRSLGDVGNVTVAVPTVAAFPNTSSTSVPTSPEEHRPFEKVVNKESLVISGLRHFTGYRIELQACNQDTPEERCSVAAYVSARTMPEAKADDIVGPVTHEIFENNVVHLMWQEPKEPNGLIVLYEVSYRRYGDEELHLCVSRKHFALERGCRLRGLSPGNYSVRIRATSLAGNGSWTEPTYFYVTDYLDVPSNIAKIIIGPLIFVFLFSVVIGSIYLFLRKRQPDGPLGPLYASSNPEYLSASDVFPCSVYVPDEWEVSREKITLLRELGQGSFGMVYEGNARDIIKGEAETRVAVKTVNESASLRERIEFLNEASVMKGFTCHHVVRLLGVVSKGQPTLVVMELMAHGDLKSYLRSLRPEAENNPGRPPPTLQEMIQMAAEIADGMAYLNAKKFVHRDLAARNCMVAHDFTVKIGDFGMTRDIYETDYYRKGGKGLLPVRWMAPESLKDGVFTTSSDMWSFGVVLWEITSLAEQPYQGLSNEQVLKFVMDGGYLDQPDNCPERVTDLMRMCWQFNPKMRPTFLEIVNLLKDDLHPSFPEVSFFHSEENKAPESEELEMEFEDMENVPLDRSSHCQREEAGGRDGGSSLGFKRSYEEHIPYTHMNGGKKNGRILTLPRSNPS
The target in assay [3] is ABL1 E255K (Homo sapiens, UniProt P00519, E255K). Further details: SelectScreen Z'-LYTE purified kinase panel, per cent inhibition, mean of two points. To be noted: (μM)=Km app.
Sequence of ABL1 E255K (P00519 whole entry E255K): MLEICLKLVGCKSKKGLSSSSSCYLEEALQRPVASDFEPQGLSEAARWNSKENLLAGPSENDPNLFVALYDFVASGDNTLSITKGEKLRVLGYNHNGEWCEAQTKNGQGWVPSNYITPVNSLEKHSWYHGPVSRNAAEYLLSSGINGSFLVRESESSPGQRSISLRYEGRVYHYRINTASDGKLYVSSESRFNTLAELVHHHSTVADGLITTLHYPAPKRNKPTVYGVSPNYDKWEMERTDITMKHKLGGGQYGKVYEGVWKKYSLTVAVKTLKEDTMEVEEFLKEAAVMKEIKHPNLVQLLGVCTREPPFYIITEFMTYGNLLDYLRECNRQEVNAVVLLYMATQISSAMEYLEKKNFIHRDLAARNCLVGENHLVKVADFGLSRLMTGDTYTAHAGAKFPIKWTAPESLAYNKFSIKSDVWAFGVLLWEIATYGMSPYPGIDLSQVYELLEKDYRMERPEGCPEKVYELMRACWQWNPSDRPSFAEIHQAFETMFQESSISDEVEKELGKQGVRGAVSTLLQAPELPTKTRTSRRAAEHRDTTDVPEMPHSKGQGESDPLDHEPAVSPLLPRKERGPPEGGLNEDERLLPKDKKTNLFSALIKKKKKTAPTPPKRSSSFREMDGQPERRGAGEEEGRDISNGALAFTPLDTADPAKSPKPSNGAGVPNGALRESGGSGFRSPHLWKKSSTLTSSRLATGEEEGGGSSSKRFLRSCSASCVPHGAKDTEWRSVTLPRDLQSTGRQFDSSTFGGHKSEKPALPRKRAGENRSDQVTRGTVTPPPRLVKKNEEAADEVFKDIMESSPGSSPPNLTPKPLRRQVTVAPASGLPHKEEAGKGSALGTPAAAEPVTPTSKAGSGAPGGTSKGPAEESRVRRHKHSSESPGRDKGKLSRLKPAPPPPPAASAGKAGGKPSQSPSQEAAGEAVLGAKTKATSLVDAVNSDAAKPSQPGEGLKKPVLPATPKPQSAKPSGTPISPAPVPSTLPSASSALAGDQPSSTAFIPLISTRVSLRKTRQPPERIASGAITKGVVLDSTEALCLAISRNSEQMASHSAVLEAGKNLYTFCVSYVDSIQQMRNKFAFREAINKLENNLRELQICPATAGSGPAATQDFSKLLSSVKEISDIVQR
Assay [4] has as its target PKN1 (PRK1) (Homo sapiens, UniProt Q16512). Also noted: SelectScreen Z'-LYTE purified kinase panel, per cent inhibition, mean of two points. To be noted: (μM)=Km app.
The target in assay [5] is T1, CHEK1 (CHK1) (Homo sapiens, UniProt O14757).
T1 sequence (O14757 1-476): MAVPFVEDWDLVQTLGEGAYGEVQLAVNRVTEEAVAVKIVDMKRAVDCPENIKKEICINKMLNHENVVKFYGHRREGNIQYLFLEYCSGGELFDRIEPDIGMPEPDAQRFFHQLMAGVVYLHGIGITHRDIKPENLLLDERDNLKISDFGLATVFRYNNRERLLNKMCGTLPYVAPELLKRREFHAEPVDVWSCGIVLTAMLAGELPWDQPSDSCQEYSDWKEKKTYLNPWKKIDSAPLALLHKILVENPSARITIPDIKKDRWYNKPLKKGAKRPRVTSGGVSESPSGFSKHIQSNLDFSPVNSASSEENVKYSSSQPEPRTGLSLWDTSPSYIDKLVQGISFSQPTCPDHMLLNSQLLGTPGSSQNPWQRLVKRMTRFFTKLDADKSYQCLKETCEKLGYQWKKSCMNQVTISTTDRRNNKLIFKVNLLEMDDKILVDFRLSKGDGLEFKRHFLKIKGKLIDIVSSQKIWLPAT
Further details: SelectScreen Z'-LYTE purified kinase panel, per cent inhibition, mean of two points. To be noted: (μM)=Km app.

Assay [6] addresses DYRK1B (Homo sapiens, UniProt Q9Y463). Also noted: SelectScreen Z'-LYTE purified kinase panel, per cent inhibition, mean of two points. To be noted: (μM)=Km app.
Assay [7] has as its target T2, BMPR2 (Homo sapiens, UniProt Q13873).
T2 sequence (Q13873 1-1038): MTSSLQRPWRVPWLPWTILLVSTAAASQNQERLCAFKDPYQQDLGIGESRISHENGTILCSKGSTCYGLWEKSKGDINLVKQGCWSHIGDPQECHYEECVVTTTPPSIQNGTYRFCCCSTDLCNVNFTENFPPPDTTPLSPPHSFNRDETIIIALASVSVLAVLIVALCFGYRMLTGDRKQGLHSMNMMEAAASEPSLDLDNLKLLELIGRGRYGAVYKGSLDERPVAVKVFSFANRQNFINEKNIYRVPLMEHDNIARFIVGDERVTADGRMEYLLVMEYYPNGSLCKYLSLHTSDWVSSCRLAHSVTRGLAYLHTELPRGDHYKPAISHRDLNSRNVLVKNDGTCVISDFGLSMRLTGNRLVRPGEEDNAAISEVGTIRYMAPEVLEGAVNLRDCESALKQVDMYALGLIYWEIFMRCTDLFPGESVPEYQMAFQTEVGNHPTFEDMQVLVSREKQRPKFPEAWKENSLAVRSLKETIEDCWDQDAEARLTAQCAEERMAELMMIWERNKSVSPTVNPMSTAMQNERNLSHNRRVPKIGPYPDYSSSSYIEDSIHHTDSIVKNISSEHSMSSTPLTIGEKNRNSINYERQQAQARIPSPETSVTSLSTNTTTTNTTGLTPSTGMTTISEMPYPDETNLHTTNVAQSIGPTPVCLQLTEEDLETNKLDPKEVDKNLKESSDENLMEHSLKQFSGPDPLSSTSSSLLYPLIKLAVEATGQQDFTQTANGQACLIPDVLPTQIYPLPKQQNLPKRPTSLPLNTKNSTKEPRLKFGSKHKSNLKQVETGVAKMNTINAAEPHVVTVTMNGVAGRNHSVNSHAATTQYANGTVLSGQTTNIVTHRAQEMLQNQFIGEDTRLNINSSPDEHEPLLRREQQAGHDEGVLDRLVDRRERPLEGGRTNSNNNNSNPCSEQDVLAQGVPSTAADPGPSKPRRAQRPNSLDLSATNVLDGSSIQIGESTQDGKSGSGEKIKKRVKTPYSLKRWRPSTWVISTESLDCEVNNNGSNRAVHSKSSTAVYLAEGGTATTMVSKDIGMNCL
Also noted: SelectScreen LanthaScreen kinase binding assay, per cent tracer displacement, mean of two points. To be noted: tracer displacement.

Assay [8] has as its target T3, PI3KC2γ (Homo sapiens, UniProt O75747).
T3 construct: gene PIK3C2G
Further details: ADP-Glo lipid kinase assay with liver PI substrate, luminescence.

Sequence of PKN1 (PRK1) (Q16512 whole entry): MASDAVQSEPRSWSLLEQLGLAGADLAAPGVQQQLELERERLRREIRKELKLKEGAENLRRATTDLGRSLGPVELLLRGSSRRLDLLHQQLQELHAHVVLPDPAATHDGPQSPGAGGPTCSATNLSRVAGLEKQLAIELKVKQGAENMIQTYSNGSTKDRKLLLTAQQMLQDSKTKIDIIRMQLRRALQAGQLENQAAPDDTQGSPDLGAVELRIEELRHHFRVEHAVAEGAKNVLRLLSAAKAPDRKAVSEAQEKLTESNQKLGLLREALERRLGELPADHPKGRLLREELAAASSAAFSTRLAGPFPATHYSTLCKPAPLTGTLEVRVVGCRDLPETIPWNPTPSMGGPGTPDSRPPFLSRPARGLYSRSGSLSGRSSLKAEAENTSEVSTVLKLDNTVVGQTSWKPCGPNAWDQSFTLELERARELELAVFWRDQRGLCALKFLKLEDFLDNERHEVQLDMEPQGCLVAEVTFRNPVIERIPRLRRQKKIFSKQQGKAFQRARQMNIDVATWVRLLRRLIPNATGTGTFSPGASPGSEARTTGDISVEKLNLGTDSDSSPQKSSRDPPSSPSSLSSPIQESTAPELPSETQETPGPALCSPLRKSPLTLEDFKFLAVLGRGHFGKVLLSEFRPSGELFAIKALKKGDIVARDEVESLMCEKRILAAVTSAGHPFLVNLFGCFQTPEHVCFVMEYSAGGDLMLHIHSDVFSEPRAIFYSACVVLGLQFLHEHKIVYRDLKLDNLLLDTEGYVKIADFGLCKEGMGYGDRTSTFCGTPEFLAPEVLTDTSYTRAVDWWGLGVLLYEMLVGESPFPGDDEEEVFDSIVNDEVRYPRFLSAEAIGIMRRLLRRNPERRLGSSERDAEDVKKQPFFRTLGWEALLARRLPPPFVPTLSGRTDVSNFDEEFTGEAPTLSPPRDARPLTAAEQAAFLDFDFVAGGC
Sequence of DYRK1B (Q9Y463 whole entry): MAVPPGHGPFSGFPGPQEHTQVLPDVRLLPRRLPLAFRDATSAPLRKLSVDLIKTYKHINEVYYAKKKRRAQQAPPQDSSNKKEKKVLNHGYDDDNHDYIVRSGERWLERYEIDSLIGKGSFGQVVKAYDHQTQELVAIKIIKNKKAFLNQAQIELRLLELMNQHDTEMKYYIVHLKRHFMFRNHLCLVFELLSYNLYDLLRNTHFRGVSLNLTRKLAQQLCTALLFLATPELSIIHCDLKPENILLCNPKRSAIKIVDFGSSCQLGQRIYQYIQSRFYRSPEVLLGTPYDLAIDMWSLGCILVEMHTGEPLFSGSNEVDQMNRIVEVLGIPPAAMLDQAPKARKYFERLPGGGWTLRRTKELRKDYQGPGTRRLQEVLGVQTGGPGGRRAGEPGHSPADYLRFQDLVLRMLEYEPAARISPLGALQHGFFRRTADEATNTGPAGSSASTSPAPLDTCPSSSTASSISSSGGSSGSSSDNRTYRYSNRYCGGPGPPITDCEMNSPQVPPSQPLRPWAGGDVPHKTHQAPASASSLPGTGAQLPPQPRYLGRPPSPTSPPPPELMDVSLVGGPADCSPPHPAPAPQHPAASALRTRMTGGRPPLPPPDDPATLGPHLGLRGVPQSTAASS
Sequence of PIP5K1B (O14986 whole entry): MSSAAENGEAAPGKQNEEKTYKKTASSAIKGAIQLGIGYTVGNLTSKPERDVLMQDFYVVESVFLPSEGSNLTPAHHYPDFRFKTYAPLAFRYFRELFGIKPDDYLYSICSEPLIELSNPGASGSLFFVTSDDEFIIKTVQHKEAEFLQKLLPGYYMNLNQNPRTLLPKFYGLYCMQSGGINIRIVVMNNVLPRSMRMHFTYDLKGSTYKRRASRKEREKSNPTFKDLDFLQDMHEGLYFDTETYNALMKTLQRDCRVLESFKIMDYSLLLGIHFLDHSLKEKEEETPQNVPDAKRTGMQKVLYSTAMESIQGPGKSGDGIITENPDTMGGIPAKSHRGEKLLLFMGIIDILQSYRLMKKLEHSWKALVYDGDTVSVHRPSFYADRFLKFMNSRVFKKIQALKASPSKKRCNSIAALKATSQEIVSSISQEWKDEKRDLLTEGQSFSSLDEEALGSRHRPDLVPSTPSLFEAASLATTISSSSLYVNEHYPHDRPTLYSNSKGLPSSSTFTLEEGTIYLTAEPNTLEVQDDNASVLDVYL

`O=C(CSc1nc2nccnc2c(=O)n1CCc1ccccc1)Nc1nccs1` [compound 1, PITCOIN1]: the inhibition at 1 µM in assay [1] is 5%; in assay [2], 3.42%; in assay [3], -2.31%; in assay [4], 8.46%; in assay [5], -13.5%; in assay [6] it was -3.1%. In assay [7], the inhibition at 1 µM is -1.13%. The inhibition at 3 µM in assay [2] was 3.95%; in assay [3], -1.35%; in assay [4], 1.84%; in assay [5] it was -11.6%; in assay [6], -1.26%; in assay [7] it was 0.974%. The inhibition at 10 µM was 0.721% in assay [2]; -2.49% in assay [3]; -4.65% in assay [4]; -3.01% in assay [5]; -0.107% in assay [6]; 3.06% in assay [7].
For `O=C(CSc1nc2nccnc2c(=O)n1CCc1ccccc1)Nc1nc(-c2cccc(O)c2)cs1` [compound 2, PITCOIN2], the inhibition at 1 µM in assay [1] is -1%. For the same molecule, the IC50 in assay [8] (read-out: PITCOIN2 (IC50)) was over 10 µM.
Take `CS(=O)(=O)Nc1cccc(-c2csc(NC(=O)CSc3nc4nccnc4c(=O)n3CCc3ccccc3)n2)c1` [compound 3, PITCOIN3]: the inhibition at 1 µM in assay [2] was 3.69%; in assay [3] it was -1.49%; in assay [4], 2.88%; in assay [5] it was -7.7%; in assay [6] it was -3%; in assay [7], 11.6%. Further, the inhibition at 3 µM in assay [2] is 4.01%; in assay [3] it was 2.48%; in assay [4] it was -5.53%; in assay [5], -2.83%; in assay [6], -3.02%; in assay [7], 13.1%. In addition, the inhibition at 10 µM was 4.66% in assay [2]; -1.01% in assay [3]; 4.05% in assay [4]; -11.2% in assay [5]; -2.65% in assay [6]; 17.3% in assay [7]. Further, in assay [8] (read-out: PITCOIN3 (IC50)), the half-inhibitory concentration (IC50) is over 10 µM.
